Assay results: patent publication US20150073033A1, “BIOMARKERS FOR CANCER CHARACTERIZATION AND TREATMENT” (Board of Regents, The University of Texas System, priority 2011, published 2015)
Entries after “also recorded” stand apart in the source; their conditions may differ. Read-outs that look alike come from different tables or passages of the source.

Assays:
PKM2 expression = assay: EGF-induced PKM2 upregulation, immunoblotting; type: cell-based, human; conditions: U87/EGFR cells; pretreatment before EGF 100 ng/mL 12 h; AG1478 1 μM, cycloheximide 200 μg/mL, Bis-I 2 μM, Go6976 2 μM, NF-κB activation inhibitor II 7 μM, AKT inhibitor 10 μM, TBB 50 μM, U73122 2 μM
Experimental: FIG. 56: EGFR activation results in upregulation of PKM2 expression. A-D: Immunoblotting analyses were performed with or without the indicated antibodies. A: The indicated cell lines were treated with EGF (100 ng/mL) for 12 h. B: U87 cells were stably transfected with plasmids expressing EGFR or EGFRvIII. […] D: U87/EGFR cells were pretreated with or without cycloheximide (CHX) (200 μg/mL) for 30 min before EGF (100 ng/mL) treatment for 12 h. […] The relative mRNA levels of PKM2 and PKM1 were normalized to the levels of untreated cells and β-actin mRNA. Data represent the mean±SD of three independent experiments.
FIG. 57: EGF increases PKM2 expression in a PKC- and NF-κB-dependent manner. A-D, H: Immunoblotting analyses were performed with the indicated antibodies. […] ChIP assay was performed with an anti-RelA antibody for immunoprecipitation, followed by PCR with PKM promoter-specific primers. F: An oligonucleotide containing the putative WT or mutated NF-κB binding sequence was labeled using [γ-^32P] ATP and T4 polynucleotide kinase. […] Samples were subjected to 5% polyacrylamide gel electrophoresis, and the dried gel was exposed to x-ray film. […] The relative levels of luciferase activity were normalized to the levels of untreated cells and to the levels of luciferase activity of the Renilla control plasmid. Data represent the mean±standard deviation of three independent experiments.
FIG. 58: PKCε downstream from PLCγ1, rather than TAK1, activates IKKβ and subsequently increases PKM2 expression. […] B: U87/EGFR cells were treated with TNFα (10 ng/mL) for the indicated time. C: U87/EGFR cells were treated with or without EGF (100 ng/mL) or TNFα (10 ng/mL) for 4 h. […] HIF1α was immunodepleted from the cell lysates by incubation with an anti-HIF1α antibody, which was followed by a ChIP assay with an anti-FLAG antibody for immunoprecipitation of FLAG-RelA and PCR analysis with PKM promoter-specific primers. […] F: 293T cells were transiently transfected with constitutively active (+) or kinase-dead (−) PKC mutants. […] H, I: 293T cells were transiently transfected with the indicated plasmids.

PKCε = biological target: T1, PKCε (Homo sapiens, UniProt Q02156); assay: TPA-induced, PKC kinase activity-dependent degradation of PKCε; type: cell-based; conditions: U87/EGFR cells; Bis-I 2 μM 30 min before TPA 8 h
T1 construct: endogenous in cells; host or cells: U87/EGFR
T1 sequence (Q02156 1-737): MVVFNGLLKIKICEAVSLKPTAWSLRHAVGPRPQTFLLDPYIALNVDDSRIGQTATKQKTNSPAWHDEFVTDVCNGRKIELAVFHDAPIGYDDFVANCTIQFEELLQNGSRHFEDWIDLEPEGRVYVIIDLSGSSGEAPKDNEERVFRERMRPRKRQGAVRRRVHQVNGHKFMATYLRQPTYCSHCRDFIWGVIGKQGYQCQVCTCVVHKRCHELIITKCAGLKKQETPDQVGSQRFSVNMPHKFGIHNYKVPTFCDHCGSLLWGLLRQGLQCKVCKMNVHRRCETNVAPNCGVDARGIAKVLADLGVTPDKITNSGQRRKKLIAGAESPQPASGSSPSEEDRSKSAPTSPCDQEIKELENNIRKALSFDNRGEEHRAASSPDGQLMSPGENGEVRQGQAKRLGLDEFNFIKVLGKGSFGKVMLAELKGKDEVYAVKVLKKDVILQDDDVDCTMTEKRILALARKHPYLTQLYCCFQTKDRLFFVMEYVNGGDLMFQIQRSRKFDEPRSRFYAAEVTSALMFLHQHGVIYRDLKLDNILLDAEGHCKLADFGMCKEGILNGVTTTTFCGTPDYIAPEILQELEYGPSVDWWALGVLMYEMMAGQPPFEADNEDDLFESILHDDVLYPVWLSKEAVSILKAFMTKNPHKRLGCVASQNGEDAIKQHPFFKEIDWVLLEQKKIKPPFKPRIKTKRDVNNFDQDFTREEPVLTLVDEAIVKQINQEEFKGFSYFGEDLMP
Experimental: (§1) FIG. 63: PKC, NF-κB, PI3-K, and CK2 are inhibited by their inhibitors. A, B: U87/EGFR cells were treated with Bis-I (2 μM) (A) or Go6976 (2 μM) (B) for 30 min before 12-O-tetradecanoylphorbol-13-acetate (TPA) ([…]) for 8 h. Immunoblotting analyses were performed with the indicated antibodies. C: U87/EGFR cells transiently expressing a luciferase reporter vector containing the IκBα promoter were pretreated with or without NF-κB activation inhibitor II (7 μM) for 30 min before TNFα (10 ng/mL) for 8 h. The relative levels of luciferase activity were normalized to the levels of untreated cells and to the levels of luciferase activity of the Renilla control plasmid. Data represent the mean±standard deviation of three independent experiments. […] Immunoblotting analyses were performed with the indicated antibodies.

PKCα = biological target: T2, PKCα (Homo sapiens, UniProt P17252); assay: TPA-induced, PKC kinase activity-dependent degradation of PKCα; type: cell-based; conditions: U87/EGFR cells; Go6976 2 μM 30 min before TPA 8 h
T2 construct: endogenous in cells; host or cells: U87/EGFR
Experimental: as §1

PKM2 [1] = assay: EGF-induced nuclear translocation of PKM2 (cell fractionation, immunoblotting, immunofluorescence); type: cell-based, human
Experimental: Immunoblotting analyses (b, b) were performed with the indicated antibodies. Nuclear PCNA and cytoplasmic tubulin were used as controls. a: The indicated cells were immunostained with an anti-PKM2 antibody.
Immunoblotting and immunoprecipitation analyses were performed with the indicated antibodies. a: Nuclear fractions were prepared from U87/EGFR cells pretreated with LY290042 (30 μM), SU6656 (4 μM), SP600125 (25 μM), and U0126 (20 μM) for 30 min before EGF (100 ng/mL) for 6 h. Nuclear PCNA and cytoplasmic tubulin were used as controls. b: U87/EGFR cells were pretreated with or without U0126 (20 μM) for 30 min before EGF (100 ng/mL) for 6 h. Immunofluorescence analyses were performed with the indicated antibodies. Nuclei were stained with Hoechst 33342 (blue). c: U251 cells were stably transfected with a vector with or without expressing FLAG-ERK2 K52R (left panel) or transiently transfected with vectors expressing MEK1 Q56P and indicated FLAG-tagged ERK2 proteins (right panel). The cells were treated with or without EGF (100 ng/mL) for 6 h, and the total cell lysates and nuclear fractions were prepared. d: FLAG-PKM2 or FLAG-PKM1 was immunoprecipitated with an anti-FLAG antibody from U87/EGFR cells treated with or without EGF (100 ng/mL) for 30 min. e: Bacterially-purified GST-ERK2 immobilized on glutathione agarose beads was mixed with or without purified His-PKM2. GST pull-down analyses were performed. Ten percent of total His-PKM2 was used as an input. f: U87/EGFR cells transfected with vectors expressing the indicated FLAG-tagged ERK proteins were treated with or without EGF (100 ng/mL) for 30 min. g: U87/EGFR cells expressing the indicated FLAG-PKM2 proteins were treated with or without EGF (100 ng/mL) for 30 min.
(§2) Immunofluorescence analyses of endogenous PKM2 or transiently expressed FLAG-PKM1 were performed with the indicated antibodies. […] Immunoblotting analyses were performed with the indicated antibodies. Nuclear PCNA was used as controls for immunoblotting analyses. c: An equal volume of cytosolic and nuclear fractions were prepared from U87/EGFR cells treated with or without EGF (100 ng/mL) for 6 h. Ten microliters of protein from cytosolic and nuclear fractions were used for immunoblotting analyses with the indicated antibodies. d: Nuclear fractions were prepared from U251 cells pretreated with LY290042 (30 μM), SU6656 (4 μM), SP600125 (25 μM), and U0126 (20 μM) for 30 min before EGF (100 ng/mL) for 6 h. Immunoblotting analyses were performed with the indicated antibodies. Nuclear PCNA and cytoplasmic tubulin were used as controls. e: U87/EGFR cells were pretreated with LY290042 (30 μM), SU6656 (4 μM), SP600125 (25 μM), and U0126 (20 μM) for 30 min before EGF (100 ng/mL) for 6 h. Immunoblotting analyses were performed with the indicated antibodies.
Cytosolic and nuclear fractions were prepared. Immunoblotting analyses were performed with the indicated antibodies. b: U87/EGFR cells with depleted endogenous PKM2 and reconstituted expression of RNAi-resistant WT rPKM2 or rPKM2 S37A were treated with or without EGF (100 ng/mL) for 6 h. Total cell lysates (left panel) and nuclear fractions (right panel) were prepared.

AKT = assay: EGF-induced AKT phosphorylation, immunoblotting; type: cell-based, human; conditions: U87/EGFR cells; LY290042 30 μM or AKT inhibitor 10 μM 30 min before EGF
Experimental: Immunofluorescence analyses of endogenous PKM2 or transiently expressed FLAG-PKM1 were performed with the indicated antibodies. […] Immunoblotting analyses were performed with the indicated antibodies. […] Immunoblotting analyses were performed with the indicated antibodies. […] Immunoblotting analyses were performed with the indicated antibodies.
as §1

PIN1-PKM2 binding = conditions: U0126 20 μM 30 min before EGF 30 min
Experimental: Immunoprecipitation and immunoblotting analyses were performed with the indicated antibodies. a: His-PIN1 immobilized on nickel agarose beads was incubated with lysate of U87/EGFR cells treated with or without U0126 (20 μM) for 30 min before EGF (100 ng/mL) stimulation for 30 min. b: U87/EGFR cells transiently expressing WT FLAG-PKM2 or FLAG-PKM2 S37A were treated with or without EGF (100 ng/mL) for 30 min. […] Data represent the mean±SD of three independent experiments. g: PIN1^−/− cells were reconstituted to express the indicated PIN1 proteins (left panel). The total cell lysates and nuclear fractions were prepared from the indicated cells treated with or without EGF (100 ng/mL) for 6 h (right panel). h: Total cell lysates and nuclear fractions of PIN1^−/− cells or PIN^−/− cells expressing FLAG-PKM2 S37D were prepared.
(§3) Extraction of proteins with a modified buffer from cultured cells was followed by immunoprecipitation and immunoblotting with corresponding antibodies, as described previously (Lu et al., 1998).

U87 cells = conditions: no-serum DMEM, U0126 20 μM 30 min before PDGF-AA 50 ng/mL 20 h
Experimental: (§4) Nuclear PCNA. Immunoblotting analyses were performed with the indicated antibodies. b: U87 cells were cultured in no-serum DMEM and treated with or without U0126 (20 μM) for 30 min before PDGF-AA (50 ng/mL) for 20 h. The media were collected for analysis of glucose consumption (left panel) or lactate production (right panel). Data represent the mean±SD of three independent experiments.
Cells were seeded in culture dishes, and the medium was changed after 6 h with no-serum DMEM. Cells were incubated for 12-16 h, and the culture medium was then collected for measurement of glucose and lactate concentrations. Glucose levels were determined using a glucose (GO) assay kit (Sigma). Glucose consumption was the difference in glucose concentration compared with DMEM. Lactate levels were determined using a lactate assay kit (Eton Bioscience, San Diego, Calif.).

ERK1/2 = assay: EGF-induced ERK1/2 phosphorylation, immunoblotting; type: cell-based, human; conditions: U87/EGFR cells; AG1478 1 μM or U0126 20 μM 30 min before EGF 6 h
Experimental: as §2, §3

PKM2 [2] = conditions: U87 cells; U0126 20 μM 30 min before PDGF-AA 50 ng/mL 6 h
Experimental: as §4

PKM2 S37 = conditions: U87/EGFR cells; U0126 20 μM 30 min before EGF 100 ng/mL 30 min
Experimental: FIG. 43: ERK2 phosphorylates PKM2 S37. […] Immunofluorescence analyses were performed with an anti-FLAG antibody (f). Nuclei were stained with Hoechst 33342 (blue).
as §3

SMILES: CN(C)CCCn1cc(C2=C(c3c[nH]c4ccccc34)C(=O)NC2=O)c2ccccc21 [Bis-I]
- EGF-induced PKM2 upregulation/expression (PKM2 expression): largely abrogated; also recorded: blocked
- TPA-induced and PKC kinase activity-dependent degradation of PKCε (PKCε): successfully blocked

SMILES: Cn1c2ccccc2c2c3c(c4c5ccccc5n(CCC#N)c4c21)CNC3=O [Go6976]
- TPA-induced and PKC kinase activity-dependent degradation of PKCα (PKCα): successfully blocked

SMILES: O=c1cc(N2CCOCC2)oc2c(-c3ccccc3)cccc12 [LY290042]
- EGF-induced nuclear accumulation/translocation of PKM2 (PKM2 [1]; U87/EGFR (and U251) cells, 30 min pretreatment before EGF 100 ng/mL, LY290042 30 μM, SU6656 4 μM, SP600125 25 μM, U0126 20 μM, AG1478 1 μM, cycloheximide 100 μg/mL): only inhibition of MEK/ERK abrogated
- EGF-induced phosphorylation of AKT (AKT): blocked

SMILES: N#CC(=C(/N)Sc1ccccc1N)/C(C#N)=C(\N)Sc1ccccc1N [U0126]
- EGF-increased binding of endogenous PIN1 to endogenous PKM2 (co-immunoprecipitation) (PIN1-PKM2 binding; U87/EGFR cells): blocked
- EGF-induced binding of endogenous PKM2 to His-PIN1 (PIN1-PKM2 binding; lysate of U87/EGFR cells): abrogated
- PDGF-induced glucose uptake (U87 cells): blocked
- PDGF-induced lactate production (U87 cells): blocked
- EGF-induced phosphorylation of ERK1/2 (ERK1/2): blocked
- PDGF-induced nuclear translocation of PKM2 (PKM2 [2]): blocked
- EGF-induced nuclear accumulation/translocation of PKM2 (PKM2 [1]): abrogated; also recorded: blocked
- EGF-induced PKM2 S37 phosphorylation (PKM2 S37): blocked
